# Calls of active or inactive are those of the source. The calls are words filed in the database; no cut-off is given here.
# How the values were obtained:
# Assay type in all cases: functional
# Klebsiella pneumoniae [1] = test: Antibacterial activity against Klebsiella pneumoniae at 75 ug/ml after 24 hrs by agar well diffusion method
# Fusarium oxysporum [2] = test: Antifungal activity against Fusarium oxysporum at 100 ug/ml after 48 hrs by agar well diffusion method; conditions: for zone of inhibition at 100 µg/mL: read-out: DIZ
# Staphylococcus aureus [3] = test: Antibacterial activity against Staphylococcus aureus at 75 ug/ml after 24 hrs by agar well diffusion method
# Staphylococcus aureus [4] = test: Antibacterial activity against Staphylococcus aureus at 50 ug/ml after 24 hrs by agar well diffusion method
# Bacillus subtilis [5] = test: Antibacterial activity against Bacillus subtilis at 75 ug/ml after 24 hrs by agar well diffusion method; conditions: for zone of inhibition at 75 µg/mL: read-out: DIZ
# Bacillus subtilis [6] = test: Antibacterial activity against Bacillus subtilis at 50 ug/ml after 24 hrs by agar well diffusion method; conditions: for zone of inhibition at 50 µg/mL: read-out: DIZ
# Staphylococcus aureus [7] = test: Antibacterial activity against methicillin resistant Staphylococcus aureus MRSA090 at 100 ug/ml after 24 hrs by agar well diffusion method; conditions: for zone of inhibition at 100 µg/mL: MRSA090, 24 h, read-out: DIZ
# Aspergillus niger [8] = test: Antifungal activity against Aspergillus niger at 75 ug/ml after 48 hrs by agar well diffusion method
# Fusarium verticillioides [9] = test: Antifungal activity against Fusarium moniliforme at 50 ug/ml after 48 hrs by agar well diffusion method
# Escherichia coli [10] = test: Antibacterial activity against Escherichia coli at 25 ug/ml after 24 hrs by agar well diffusion method; conditions: for zone of inhibition at 25 µg/mL: read-out: DIZ
# Bacillus subtilis [11] = test: Antibacterial activity against Bacillus subtilis at 25 ug/ml after 24 hrs by agar well diffusion method; conditions: for zone of inhibition at 25 µg/mL: read-out: DIZ
# Aspergillus niger [12] = test: Antifungal activity against Aspergillus niger at 100 ug/ml after 48 hrs by agar well diffusion method
# Staphylococcus aureus [13] = test: Antibacterial activity against methicillin resistant Staphylococcus aureus MRSA090 at 75 ug/ml after 24 hrs by agar well diffusion method; conditions: for zone of inhibition at 75 µg/mL: MRSA090, 24 h, read-out: DIZ
# Fusarium oxysporum [14] = test: Antifungal activity against Fusarium oxysporum at 25 ug/ml after 48 hrs by agar well diffusion method
# Staphylococcus aureus [15] = test: Antibacterial activity against methicillin resistant Staphylococcus aureus MRSA090 at 50 ug/ml after 24 hrs by agar well diffusion method; conditions: for zone of inhibition at 50 µg/mL: MRSA090, 24 h, read-out: DIZ
# Fusarium verticillioides [16] = test: Antifungal activity against Fusarium moniliforme at 25 ug/ml after 48 hrs by agar well diffusion method
# Fusarium oxysporum [17] = test: Antifungal activity against Fusarium oxysporum at 75 ug/ml after 48 hrs by agar well diffusion method; conditions: for zone of inhibition at 75 µg/mL: read-out: DIZ
# Staphylococcus aureus [18] = test: Antibacterial activity against methicillin resistant Staphylococcus aureus MRSA090 at 25 ug/ml after 24 hrs by agar well diffusion method; conditions: for zone of inhibition at 25 µg/mL: MRSA090, 24 h, read-out: DIZ
# Fusarium verticillioides [19] = test: Antifungal activity against Fusarium moniliforme at 75 ug/ml after 48 hrs by agar well diffusion method
# Klebsiella pneumoniae [20] = test: Antibacterial activity against Klebsiella pneumoniae at 50 ug/ml after 24 hrs by agar well diffusion method
# Staphylococcus aureus [21] = test: Antibacterial activity against Staphylococcus aureus at 100 ug/ml after 24 hrs by agar well diffusion method; conditions: for zone of inhibition at 100 µg/mL: read-out: DIZ
# Bacillus subtilis [22] = test: Antibacterial activity against Bacillus subtilis at 100 ug/ml after 24 hrs by agar well diffusion method; conditions: for zone of inhibition at 100 µg/mL: read-out: DIZ
# Escherichia coli [23] = test: Antibacterial activity against Escherichia coli at 75 ug/ml after 24 hrs by agar well diffusion method; conditions: for zone of inhibition at 75 µg/mL: read-out: DIZ
# Aspergillus niger [24] = test: Antifungal activity against Aspergillus niger at 25 ug/ml after 48 hrs by agar well diffusion method
# Fusarium oxysporum [25] = test: Antifungal activity against Fusarium oxysporum at 50 ug/ml after 48 hrs by agar well diffusion method; conditions: for zone of inhibition at 50 µg/mL: read-out: DIZ
# Escherichia coli [26] = test: Antibacterial activity against Escherichia coli at 100 ug/ml after 24 hrs by agar well diffusion method; conditions: for zone of inhibition at 100 µg/mL: read-out: DIZ
# Klebsiella pneumoniae [27] = test: Antibacterial activity against Klebsiella pneumoniae at 25 ug/ml after 24 hrs by agar well diffusion method
# Escherichia coli [28] = test: Antibacterial activity against Escherichia coli at 50 ug/ml after 24 hrs by agar well diffusion method; conditions: for zone of inhibition at 50 µg/mL: read-out: DIZ
# Staphylococcus aureus [29] = test: Antibacterial activity against Staphylococcus aureus at 25 ug/ml after 24 hrs by agar well diffusion method
# Aspergillus niger [30] = test: Antifungal activity against Aspergillus niger at 50 ug/ml after 48 hrs by agar well diffusion method
# Fusarium verticillioides [31] = test: Antifungal activity against Fusarium moniliforme at 100 ug/ml after 48 hrs by agar well diffusion method
# Klebsiella pneumoniae [32] = test: Antibacterial activity against Klebsiella pneumoniae at 100 ug/ml after 24 hrs by agar well diffusion method
smiles,measurement,setting,value
Cc1cccc2nc(N/N=C/c3ccc(O)cc3Br)sc12,zone of inhibition at 75 µg/mL,Klebsiella pneumoniae [1]; read-out: DIZ,11 mm
same,diameter of the inhibition zone (DIZ),Fusarium oxysporum [2],inactive
same,diameter of the inhibition zone (DIZ),Staphylococcus aureus [3],inactive
same,diameter of the inhibition zone (DIZ),Staphylococcus aureus [4],inactive
same,zone of inhibition at 75 µg/mL,Bacillus subtilis [5],13 mm
same,zone of inhibition at 50 µg/mL,Bacillus subtilis [6],11 mm
same,zone of inhibition at 100 µg/mL,Staphylococcus aureus [7],17 mm
same,diameter of the inhibition zone (DIZ),Aspergillus niger [8],inactive
same,diameter of the inhibition zone (DIZ),Fusarium verticillioides [9],inactive
same,zone of inhibition at 25 µg/mL,Escherichia coli [10],6 mm
same,zone of inhibition at 25 µg/mL,Bacillus subtilis [11],7 mm
same,diameter of the inhibition zone (DIZ),Aspergillus niger [12],inactive
same,zone of inhibition at 75 µg/mL,Staphylococcus aureus [13],14 mm
same,diameter of the inhibition zone (DIZ),Fusarium oxysporum [14],inactive
same,zone of inhibition at 50 µg/mL,Staphylococcus aureus [15],11 mm
same,diameter of the inhibition zone (DIZ),Fusarium verticillioides [16],inactive
same,diameter of the inhibition zone (DIZ),Fusarium oxysporum [17],inactive
same,zone of inhibition at 25 µg/mL,Staphylococcus aureus [18],7 mm
same,diameter of the inhibition zone (DIZ),Fusarium verticillioides [19],inactive
same,diameter of the inhibition zone (DIZ),Klebsiella pneumoniae [20],inactive
same,diameter of the inhibition zone (DIZ),Staphylococcus aureus [21],inactive
same,zone of inhibition at 100 µg/mL,Bacillus subtilis [22],15 mm
same,zone of inhibition at 75 µg/mL,Escherichia coli [23],11 mm
same,diameter of the inhibition zone (DIZ),Aspergillus niger [24],inactive
same,diameter of the inhibition zone (DIZ),Fusarium oxysporum [25],inactive
same,zone of inhibition at 100 µg/mL,Escherichia coli [26],16 mm
same,diameter of the inhibition zone (DIZ),Klebsiella pneumoniae [27],inactive
same,zone of inhibition at 50 µg/mL,Escherichia coli [28],9 mm
same,diameter of the inhibition zone (DIZ),Staphylococcus aureus [29],inactive
same,diameter of the inhibition zone (DIZ),Aspergillus niger [30],inactive
same,diameter of the inhibition zone (DIZ),Fusarium verticillioides [31],inactive
same,zone of inhibition at 100 µg/mL,Klebsiella pneumoniae [32]; read-out: DIZ,14 mm
CCCCCC/C=N/Nc1nc2cccc(C)c2s1,diameter of the inhibition zone (DIZ),Klebsiella pneumoniae [1],inactive
same,diameter of the inhibition zone (DIZ),Fusarium oxysporum [2],inactive
same,diameter of the inhibition zone (DIZ),Staphylococcus aureus [3],inactive
same,diameter of the inhibition zone (DIZ),Staphylococcus aureus [4],inactive
same,diameter of the inhibition zone (DIZ),Bacillus subtilis [5],inactive
same,diameter of the inhibition zone (DIZ),Bacillus subtilis [6],inactive
same,diameter of the inhibition zone (DIZ),Staphylococcus aureus [7],inactive
same,diameter of the inhibition zone (DIZ),Aspergillus niger [8],inactive
same,diameter of the inhibition zone (DIZ),Fusarium verticillioides [9],inactive
same,diameter of the inhibition zone (DIZ),Escherichia coli [10],inactive
same,diameter of the inhibition zone (DIZ),Bacillus subtilis [11],inactive
same,diameter of the inhibition zone (DIZ),Aspergillus niger [12],inactive
same,diameter of the inhibition zone (DIZ),Staphylococcus aureus [13],inactive
same,diameter of the inhibition zone (DIZ),Fusarium oxysporum [14],inactive
same,diameter of the inhibition zone (DIZ),Staphylococcus aureus [15],inactive
same,diameter of the inhibition zone (DIZ),Fusarium verticillioides [16],inactive
same,diameter of the inhibition zone (DIZ),Fusarium oxysporum [17],inactive
same,diameter of the inhibition zone (DIZ),Staphylococcus aureus [18],inactive
same,diameter of the inhibition zone (DIZ),Fusarium verticillioides [19],inactive
same,diameter of the inhibition zone (DIZ),Klebsiella pneumoniae [20],inactive
same,diameter of the inhibition zone (DIZ),Staphylococcus aureus [21],inactive
same,diameter of the inhibition zone (DIZ),Bacillus subtilis [22],inactive
same,diameter of the inhibition zone (DIZ),Escherichia coli [23],inactive
same,diameter of the inhibition zone (DIZ),Aspergillus niger [24],inactive
same,diameter of the inhibition zone (DIZ),Fusarium oxysporum [25],inactive
same,diameter of the inhibition zone (DIZ),Escherichia coli [26],inactive
same,diameter of the inhibition zone (DIZ),Klebsiella pneumoniae [27],inactive
same,diameter of the inhibition zone (DIZ),Escherichia coli [28],inactive
same,diameter of the inhibition zone (DIZ),Staphylococcus aureus [29],inactive
same,diameter of the inhibition zone (DIZ),Aspergillus niger [30],inactive
same,diameter of the inhibition zone (DIZ),Fusarium verticillioides [31],inactive
same,diameter of the inhibition zone (DIZ),Klebsiella pneumoniae [32],inactive
Cc1ccc(/C=N/Nc2nc3cccc(C)c3s2)cc1,diameter of the inhibition zone (DIZ),Klebsiella pneumoniae [1],inactive
same,zone of inhibition at 100 µg/mL,Fusarium oxysporum [2],17 mm
same,diameter of the inhibition zone (DIZ),Staphylococcus aureus [3],inactive
same,diameter of the inhibition zone (DIZ),Staphylococcus aureus [4],inactive
same,diameter of the inhibition zone (DIZ),Bacillus subtilis [5],inactive
same,diameter of the inhibition zone (DIZ),Bacillus subtilis [6],inactive
same,zone of inhibition at 100 µg/mL,Staphylococcus aureus [7],17 mm
same,diameter of the inhibition zone (DIZ),Aspergillus niger [8],inactive
same,diameter of the inhibition zone (DIZ),Fusarium verticillioides [9],inactive
same,zone of inhibition at 25 µg/mL,Escherichia coli [10],10 mm
same,diameter of the inhibition zone (DIZ),Bacillus subtilis [11],inactive
same,diameter of the inhibition zone (DIZ),Aspergillus niger [12],inactive
same,zone of inhibition at 75 µg/mL,Staphylococcus aureus [13],14 mm
same,zone of inhibition at 25 µg/mL,Fusarium oxysporum [14]; read-out: DIZ,7 mm
same,zone of inhibition at 50 µg/mL,Staphylococcus aureus [15],10 mm
same,diameter of the inhibition zone (DIZ),Fusarium verticillioides [16],inactive
same,zone of inhibition at 75 µg/mL,Fusarium oxysporum [17],14 mm
same,zone of inhibition at 25 µg/mL,Staphylococcus aureus [18],6 mm
same,diameter of the inhibition zone (DIZ),Fusarium verticillioides [19],inactive
same,diameter of the inhibition zone (DIZ),Klebsiella pneumoniae [20],inactive
same,zone of inhibition at 100 µg/mL,Staphylococcus aureus [21],10 mm
same,diameter of the inhibition zone (DIZ),Bacillus subtilis [22],inactive
same,zone of inhibition at 75 µg/mL,Escherichia coli [23],17 mm
same,diameter of the inhibition zone (DIZ),Aspergillus niger [24],inactive
same,zone of inhibition at 50 µg/mL,Fusarium oxysporum [25],11 mm
same,zone of inhibition at 100 µg/mL,Escherichia coli [26],22 mm
same,diameter of the inhibition zone (DIZ),Klebsiella pneumoniae [27],inactive
same,zone of inhibition at 50 µg/mL,Escherichia coli [28],14 mm
same,diameter of the inhibition zone (DIZ),Staphylococcus aureus [29],inactive
same,diameter of the inhibition zone (DIZ),Aspergillus niger [30],inactive
same,diameter of the inhibition zone (DIZ),Fusarium verticillioides [31],inactive
same,diameter of the inhibition zone (DIZ),Klebsiella pneumoniae [32],inactive
Cc1cccc2nc(N/N=C/c3ccc(Cl)cc3)sc12,diameter of the inhibition zone (DIZ),Klebsiella pneumoniae [1],inactive
same,zone of inhibition at 100 µg/mL,Fusarium oxysporum [2],17 mm
same,zone of inhibition at 75 µg/mL,Staphylococcus aureus [3]; read-out: DIZ,11 mm
same,zone of inhibition at 50 µg/mL,Staphylococcus aureus [4]; read-out: DIZ,9 mm
same,zone of inhibition at 75 µg/mL,Bacillus subtilis [5],11 mm
same,zone of inhibition at 50 µg/mL,Bacillus subtilis [6],9 mm
same,zone of inhibition at 100 µg/mL,Staphylococcus aureus [7],15 mm
same,zone of inhibition at 75 µg/mL,Aspergillus niger [8]; read-out: DIZ,16 mm
same,zone of inhibition at 50 µg/mL,Fusarium verticillioides [9]; read-out: DIZ,14 mm
same,diameter of the inhibition zone (DIZ),Escherichia coli [10],inactive
same,zone of inhibition at 25 µg/mL,Bacillus subtilis [11],7 mm
same,zone of inhibition at 100 µg/mL,Aspergillus niger [12]; read-out: DIZ,19 mm
same,zone of inhibition at 75 µg/mL,Staphylococcus aureus [13],12 mm
same,zone of inhibition at 50 µg/mL,Staphylococcus aureus [15],9 mm
same,zone of inhibition at 25 µg/mL,Fusarium verticillioides [16]; read-out: DIZ,11 mm
same,zone of inhibition at 75 µg/mL,Fusarium oxysporum [17],14 mm
same,zone of inhibition at 25 µg/mL,Staphylococcus aureus [18],4 mm
same,zone of inhibition at 75 µg/mL,Fusarium verticillioides [19]; read-out: DIZ,20 mm
same,diameter of the inhibition zone (DIZ),Klebsiella pneumoniae [20],inactive
same,zone of inhibition at 100 µg/mL,Staphylococcus aureus [21],13 mm
same,zone of inhibition at 100 µg/mL,Bacillus subtilis [22],14 mm
same,zone of inhibition at 75 µg/mL,Escherichia coli [23],6 mm
same,zone of inhibition at 25 µg/mL,Aspergillus niger [24]; read-out: DIZ,8 mm
same,zone of inhibition at 50 µg/mL,Fusarium oxysporum [25],11 mm
same,zone of inhibition at 100 µg/mL,Escherichia coli [26],10 mm
same,diameter of the inhibition zone (DIZ),Klebsiella pneumoniae [27],inactive
same,diameter of the inhibition zone (DIZ),Escherichia coli [28],inactive
same,zone of inhibition at 25 µg/mL,Staphylococcus aureus [29]; read-out: DIZ,5 mm
same,zone of inhibition at 50 µg/mL,Aspergillus niger [30]; read-out: DIZ,13 mm
same,zone of inhibition at 100 µg/mL,Fusarium verticillioides [31]; read-out: DIZ,26 mm
same,diameter of the inhibition zone (DIZ),Klebsiella pneumoniae [32],inactive
